Reference: the NIST ThermoML archive (doi:10.1021/je101178u)
“And” between values parts separate entries of the source, which are not always exact repeats. Equal entries are not always repeated. ± gives the expanded uncertainty stated by the source.

Conditions: 423.15 K, Fluid (supercritical or subcritical phases); for viscosity: vibrating wire; for mass density: Buoyancy - hydrostatic balance with magnetic suspension - one sinker

CCC [propane]
Conditions | mass density | viscosity
1334.7 kPa | – | 0.01162 ± 7e-05 mPa·s
1335.7 kPa | 18.032 ± 0.038 kg/m3 | 0.01162 ± 7e-05 mPa·s
1454.8 kPa | 19.782 ± 0.042 kg/m3 and 19.781 ± 0.042 kg/m3 | 0.01166 ± 7e-05 mPa·s
2110 kPa | 29.905 ± 0.064 kg/m3 | 0.01189 ± 7.2e-05 mPa·s
2110.7 kPa | 29.916 ± 0.064 kg/m3 | 0.01189 ± 7.2e-05 mPa·s
2704.3 kPa | 39.922 ± 0.087 kg/m3 | 0.01217 ± 7.3e-05 mPa·s
2704.8 kPa | 39.931 ± 0.087 kg/m3 | 0.01217 ± 7.3e-05 mPa·s
3242.6 kPa | 49.821 ± 0.11 kg/m3 | 0.01248 ± 7.5e-05 mPa·s
3243.3 kPa | 49.834 ± 0.11 kg/m3 | 0.01248 ± 7.5e-05 mPa·s
3747.9 kPa | 59.965 ± 0.14 kg/m3 | 0.01283 ± 7.7e-05 mPa·s
3749.2 kPa | 59.991 ± 0.14 kg/m3 | 0.01284 ± 7.7e-05 mPa·s
4207.4 kPa | 70.041 ± 0.17 kg/m3 | 0.01323 ± 8e-05 mPa·s
4207.9 kPa | 70.052 ± 0.17 kg/m3 | 0.01323 ± 8e-05 mPa·s
4616.7 kPa | 79.819 ± 0.3 kg/m3 | 0.01365 ± 0.0001 mPa·s
4617.3 kPa | 79.834 ± 0.3 kg/m3 | 0.01365 ± 0.0001 mPa·s
5007.5 kPa | 89.97 ± 0.35 kg/m3 | 0.01412 ± 0.00013 mPa·s
5008.6 kPa | 90.002 ± 0.35 kg/m3 | 0.01412 ± 0.00013 mPa·s
5358.6 kPa | 99.87 ± 0.37 kg/m3 | 0.01462 ± 0.00013 mPa·s
5360.2 kPa | 99.917 ± 0.37 kg/m3 | 0.01462 ± 0.00013 mPa·s
5989.5 kPa | 119.759 ± 0.41 kg/m3 | 0.01573 ± 0.00014 mPa·s
5989.8 kPa | 119.769 ± 0.41 kg/m3 | 0.01573 ± 0.00014 mPa·s
6545.1 kPa | 139.717 ± 0.45 kg/m3 | 0.017 ± 0.00015 mPa·s
6545.3 kPa | 139.725 ± 0.45 kg/m3 | 0.017 ± 0.00015 mPa·s
7033 kPa | 159.017 ± 0.49 kg/m3 | 0.01838 ± 0.00016 mPa·s
7033.7 kPa | 159.048 ± 0.49 kg/m3 | 0.01838 ± 0.00016 mPa·s
7520.1 kPa | 179.397 ± 0.52 kg/m3 | 0.02002 ± 0.00017 mPa·s
7520.8 kPa | 179.425 ± 0.52 kg/m3 | 0.02002 ± 0.00017 mPa·s
7992.2 kPa | 199.277 ± 0.56 kg/m3 | 0.02182 ± 0.00018 mPa·s
7992.6 kPa | 199.294 ± 0.56 kg/m3 | 0.02182 ± 0.00018 mPa·s
8516 kPa | 220.253 ± 0.59 kg/m3 | 0.02395 ± 0.00019 mPa·s
8516.4 kPa | 220.267 ± 0.59 kg/m3 | 0.02394 ± 0.00019 mPa·s
9079.6 kPa | 240.483 ± 0.61 kg/m3 | 0.02624 ± 0.0002 mPa·s
9079.9 kPa | 240.492 ± 0.61 kg/m3 | 0.02623 ± 0.0002 mPa·s
9738.4 kPa | 260.609 ± 0.61 kg/m3 | 0.02877 ± 0.0002 mPa·s
9738.5 kPa | 260.612 ± 0.61 kg/m3 | 0.02878 ± 0.0002 mPa·s
10543 kPa | 280.635 ± 0.64 kg/m3 | 0.03161 ± 0.00022 mPa·s
10544 kPa | 280.644 ± 0.64 kg/m3 | 0.0316 ± 0.00022 mPa·s
11566 kPa | 300.645 ± 0.66 kg/m3 and 300.654 ± 0.66 kg/m3 | 0.03477 ± 0.00023 mPa·s
12882 kPa | 320.474 ± 0.69 kg/m3 | 0.03827 ± 0.00025 mPa·s
12884 kPa | 320.488 ± 0.69 kg/m3 | 0.03828 ± 0.00025 mPa·s
14693 kPa | 341.059 ± 0.72 kg/m3 | 0.04235 ± 0.00027 mPa·s and 0.04234 ± 0.00027 mPa·s
17064 kPa | 361.23 ± 0.75 kg/m3 | 0.04694 ± 0.0003 mPa·s
17065 kPa | 361.234 ± 0.75 kg/m3 | 0.04691 ± 0.0003 mPa·s
20192 kPa | 381.227 ± 0.79 kg/m3 | 0.05209 ± 0.00033 mPa·s
20193 kPa | 381.229 ± 0.79 kg/m3 | 0.05209 ± 0.00033 mPa·s
24333 kPa | 401.231 ± 0.83 kg/m3 | 0.05798 ± 0.00036 mPa·s
24334 kPa | 401.235 ± 0.83 kg/m3 | 0.05795 ± 0.00036 mPa·s
29700 kPa | 421.002 ± 0.88 kg/m3 | 0.06464 ± 0.0004 mPa·s
29703 kPa | 421.011 ± 0.88 kg/m3 | 0.06466 ± 0.0004 mPa·s
